Biological target: AT2 receptor (Homo sapiens (Human), UniProt P50052)
Assay: AT2 Receptor Binding
Conditions: HEK293 AT2 receptor transient cell membranes, [125I]-CGP42112A
Method: 1. Trypsin-EDTA (for Preparation of 100 mL)
• Dissolve trypsin in 2% EDTA and PBS completely; sterilize the solution by passing through a […] membrane filter; store at 4° C.
2. DMEM Medium (for Preparation of 1 L) • The powder was dissolved into 950 mL of distilled water with gentle stirring until the solution becomes clear. • Add. NaHCO3 1.176 g for DMEM medium. • Adjust pH of medium to 0.2˜0.3 below final working pH using 1 M NaOH or 1 M • HCl. Add slowly with stirring. • Dilute to 1 liter with ddH2O. • Sterilize the medium immediately by filtration. • Store at 4° C.
3. TE Buffer • 20 mM Tris-HCl, pH 7.4, • 5 mM EDTA
4. Binding Assay Buffer • 50 mM Hepes, pH 7.4 • 5 mM MgCl2 • 1 mM CaCl2 • 0.2% BSA
5. Wash Buffer • 50 mM Hepes, pH 7.4 Procedures for HEK293AT2 Receptor Transient Cell Transfection • Cells were plated into 150 mm dish at 50% density for transient transfection. Cells were ready for transfection after overnight incubation (the confluence reaches around 80%). • 75 μL Lipofectamine™2000 diluted in 6.25 mL OptiMEM I Reduced Serum Medium, was mixed gently, and incubated at room temperature for 5 minutes. 50 μg expression plasmid DNA diluted in 6.25 mL OptiMEM I Reduced Serum Medium without serum was mixed gently. • After the 5 minute incubation, the diluted DNA was combined with the diluted Lipofectamine™2000 (total volume is 12.5 mL). The mixture was mixed gently and incubated for 30 minutes at room temperature to allow the DNA-Lipofectamine™2000 complexes to form. • The 12.5 mL DNA-Lipofectamine™2000 complexes were added into the 150 mm dish and mixed gently by rocking the dish back and forth. • The cells were incubated at 37° C. with 5% CO2 for 48 hours. Cells were collected and stored frozen at −80° C. Procedures for HEK293AT2 Receptor Cell Membrane Preparation • Frozen HEK293AT2 receptor (transient transfected) cells were homogenized in ice cold TE buffer for 10s. • The homogenate was centrifuged at 25,000 g for 30 minutes. • The pellet was resuspended in ice cold tissue buffer. • Protein concentrations were determined using Bradford assay method with BSA as standard. • The membrane protein was frozen under −80° C. Compound Preparation
Solutions of all compounds were prepared bymicroplate liquid handling equipment such as Janus or Precision 2000. Compounds, dissolved in DMSO were stored in a Freezer. Compounds were prepared from 30 mM in 100% DMSO.
Step 1: Dose Plate Preparation (96 Well Plate)
• Add the 3 μL [30 mM] compound stock to column 1 on the plate. • Add 15 μL of 100% DMSO to column 1. • Add 10.81 μL of 100% DMSO to column 2-12. • Transfer 5 μL from column 1 into column 2 (half log dilution). • Transfer 5 μL from column 2 into column 3 (half log dilution). • Transfer 5 μL from column 3 into column 4 (half log dilution). • Transfer 5 μL from column 4 into column 5 (half log dilution). • Transfer 5 μL from column 5 into column 6 (half log dilution). • Transfer 5 μL from column 6 into column 7 (half log dilution). • Transfer 5 μL from column 7 into column 8 (half log dilution). • Transfer 5 μL from column 8 into column 9 (half log dilution). • Transfer 5 μL from column 9 into column 10 (half log dilution) • Transfer 5 μL from column 10 into column 11 (half log dilution) • Transfer 5 μL from column 11 into column 12 (half log dilution).
All the compounds were diluted using Precision 2000 microplate liquid handling equipment. The top concentration of compound was 5 mM with 100% DMSO.
Step 2: Working Plate Preparation (96 Well Plate)
• Compounds were diluted 50-fold with buffer. • 49 μL buffer was added to the well of 96 well plate. • 1 μL compound solution from dose plate was transferred to the corresponding well of working plate. • The top concentration of compound was 100 μM with 2% DMSO. Step 3: Assay Plate Preparation (96 Well Plate)
15 μL of compound solution was transferred from each well of working plate to the well of assay plate by Janus.

Sequence of AT2 receptor (P50052 whole entry, species assumed): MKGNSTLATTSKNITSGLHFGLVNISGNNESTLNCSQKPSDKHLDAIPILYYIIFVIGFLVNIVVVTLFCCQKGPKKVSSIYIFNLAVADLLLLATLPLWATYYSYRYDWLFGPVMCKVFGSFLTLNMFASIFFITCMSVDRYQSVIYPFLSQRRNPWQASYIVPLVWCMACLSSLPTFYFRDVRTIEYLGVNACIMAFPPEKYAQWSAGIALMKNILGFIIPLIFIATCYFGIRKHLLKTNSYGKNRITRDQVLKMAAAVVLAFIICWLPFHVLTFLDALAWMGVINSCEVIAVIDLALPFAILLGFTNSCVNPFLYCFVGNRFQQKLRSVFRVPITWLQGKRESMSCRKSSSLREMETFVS

Compound: O=C(O)[C@@H]1[C@@H](OCCCc2ccccc2)CN1C(=O)C(c1ccccc1)c1ccccc1 (mixture of isomers) [Compound 142, (2S,3S)-1-(2,2-diphenylacetyl)-3-(3-phenylpropoxy)-azetidine-2-carboxylic acid and (2R,3R)-1-(2,2-diphenylacetyl)-3-(3-phenylpropoxy)-azetidine-2-carboxylic acid]
- IC50: 993 nM

Compound: COc1ccc(C#CCN(C)[C@H]2C[C@@H](C(=O)O)N(C(=O)C(c3ccccc3)c3ccccc3)C2)cc1C [Compound 105, (2S,4S)-1-(2,2-diphenylacetyl)-4-((3-(4-methoxy-3-methylphenyl)prop-2-yn-1-yl)(methyl)amino)pyrrolidine-2-carboxylic acid]
- IC50: 2490 nM

Compound: O=C(O)[C@@H]1C[C@H](Oc2ccccc2Oc2ccccc2)CN1C(=O)C(c1ccccc1)c1ccccc1 [Compound 35, (2S,4S)-1-(2,2-diphenylacetyl)-4-(2-phenoxyphenoxy)-pyrrolidine-2-carboxylic acid]
- IC50: 540 nM

Compound: O=C(O)[C@@H]1C[C@H](COCc2ccccc2)CN1C(=O)C(c1ccccc1)c1ccccc1 [Compound 54]
- IC50: 155 nM

Compound: CN(CCCc1ccccc1)[C@H]1C[C@@H](C(=O)O)N(C(=O)C(c2ccccc2)C2CCCCC2)C1 (stereo partly drawn) [Compound 62, (2S,4S)-1-(2-cyclohexyl-2-phenylacetyl)-4-(methyl(3-phenylpropyl)amino)pyrrolidine-2-carboxylic acid]
- IC50: 540 nM

Compound: O=C(O)[C@@H]1C[C@H](S(=O)(=O)CCCc2ccc(F)cc2)CN1C(=O)C(c1ccccc1)c1ccccc1 [Compound 134, (2S,4S)-1-(2,2-diphenylacetyl)-4((3-(4-fluorophenyl)propyl)sulfonyl)pyrrolidine-2-carboxylic acid]
- IC50: 954 nM

Compound: O=C(O)[C@@H]1C[C@H](N2CCC[C@H](c3ccccc3)C2)CN1C(=O)C(c1ccccc1)c1ccccc1 [Compound 49, (2S,4S)-1-(2,2-diphenylacetyl)-4-((R)-3-phenylpiperidin-1-yl)pyrrolidine-2-carboxylic acid]
- IC50: 58.8 nM

Compound: O=C(O)[C@@H]1C[C@H](n2nncc2-c2ccccc2)CN1C(=O)C(c1ccccc1)c1ccccc1 [Compound 100, (2S,4S)-1-(2,2-diphenylacetyl)-4-(5-phenyl-1H-1,2,3-triazol-1-yl)pyrrolidine-2-carboxylic acid]
- IC50: 18 nM

Compound: O=C(O)[C@@H]1C[C@H](N2CCCCC2Cc2ccccc2)CN1C(=O)C(c1ccccc1)c1ccccc1 (single isomer, unassigned) [Compound 70-B]
- IC50: 1340 nM

Compound: CN(CCCc1cccnc1)[C@H]1C[C@@H](C(=O)O)N(C(=O)C(c2ccccc2)c2ccccc2)C1 [Compound 93]
- IC50: 126 nM

Compound: O=C(O)[C@@H]1C[C@H](CSc2ccccc2)CN1C(=O)C(c1ccccc1)c1ccccc1 [Compound 122, (2S,4S)-1-(2,2-diphenylacetyl)-4-((phenylthio)methyl)pyrrolidine-2-carboxylic acid]
- IC50: 143 nM

Compound: CN(C)S(=O)(=O)NC(=O)[C@@H]1C[C@H](OCCCc2ccccc2)CN1C(=O)C(c1ccccc1)c1ccccc1 [Compound 50]
- IC50: 67.3 nM

Compound: O=C1NCC2(CCN([C@H]3C[C@@H](C(=O)O)N(C(=O)C(c4ccccc4)c4ccccc4)C3)CC2)C1c1ccccc1 (stereo partly drawn) [Compound 65, (2S,4S)-1-(2,2-diphenylacetyl)-4-(3-oxo-4-phenyl-2,8-diazaspiro[4,5]decan-8-yl)pyrrolidine-2-carboxylic acid]
- IC50: 1600 nM

Compound: O=C(O)[C@@H]1C[C@H](SCCc2ccccc2)CN1C(=O)C(c1ccccc1)c1ccccc1 [Compound 131, (2S,4S)-1-(2,2-diphenylacetyl)-4-(phenethylthio)pyrrolidine-2-carboxylic acid]
- IC50: 652 nM

Compound: O=C(O)[C@H]1[C@H](OCCCc2ccccc2)CN1C(=O)C(c1ccccc1)c1ccccc1 (mixture of isomers) [Compound 143, (2R,3R)-3-(3-phenylpropoxy)-1-(2,2-diphenylacetyl)-azetidine-2-carboxylic acid and (2S,3S)-3-(3-phenylpropoxy)-1-(2,2-diphenylacetyl)-azetidine-2-carboxylic acid]
- IC50: 372 nM

Compound: CS(=O)(=O)NC(=O)[C@@H]1C[C@H](OCCCc2ccccc2)CN1C(=O)C(c1ccccc1)c1ccccc1 [Compound 135, (2S,4S)-1-(2,2-diphenylacetyl)-N-(methylsulfonyl)-4-(phenylpropoxy)pyrrolidine-2-carboxamide]
- IC50: 240 nM

Compound: O=C(O)[C@@H]1C[C@@H](OCc2ccccc2)CN1C(=O)C(c1ccccc1)c1ccccc1 [Compound 3, (2S,4R)-4-(benzyloxy)-1-(2,2-diphenylacetyl)pyrrolidine-2-carboxylic acid]
- IC50: 193 nM

Compound: O=C(O)[C@@H]1C[C@H](N2CCC[C@H]3CN(Cc4ccccc4)C[C@H]32)CN1C(=O)C(c1ccccc1)c1ccccc1 [Compound 84]
- IC50: 75.8 nM

Compound: O=C(O)[C@@H]1C[C@H](NCCc2ccccc2)CN1C(=O)C(c1ccccc1)c1ccccc1 [Compound 46, (2S,4S)-1-(2,2-diphenylacetyl)-4-(phenethylamino)-pyrrolidine-2-carboxylic acid]
- IC50: 2260 nM

Compound: O=C(O)[C@@H]1C[C@H](N2CCC3(CC2)C(=O)NC3c2ccccc2)CN1C(=O)C(c1ccccc1)c1ccccc1 (stereo partly drawn) [Compound 75, (2S,4S)-1-(2,2-diphenylacetyl)-4-(1-oxo-3-phenyl-2,7-diazaspiro[3,5]nonan-7-yl)pyrrolidine-2-carboxylic acid]
- IC50: 3830 nM

Compound: O=C(O)[C@@H]1C[C@H](N2CCCC2Cc2ccccc2)CN1C(=O)C(c1ccccc1)c1ccccc1 (single isomer, unassigned) [Compound 61-B, (3′S,5′S)-2-benzyl-V-(2,2-diphenylacetyl)-[1,3′-bipyrrolidine]-5′-carboxylic acid]
- IC50: 107 nM

Compound: O=C(O)[C@@H]1C[C@H](N2CCCC(Cc3ccccc3)C2)CN1C(=O)C(c1ccccc1)c1ccccc1 (stereo partly drawn) [Compound 53, (2S,4S)-4-(3-benzylpiperidin-1-yl)-1-(2,2-diphenylacetyl)-pyrrolidine-2-carboxylic acid]
- IC50: 43.9 nM

Compound: CN(CCCCc1ccccc1)[C@H]1C[C@@H](C(=O)O)N(C(=O)C(c2ccccc2)c2ccccc2)C1 [Compound 90, (2S,4S)-1-(2,2-diphenylacetyl)-4-(methyl(4-phenylbutyl)-amino)pyrrolidine-2-carboxylic acid]
- IC50: 64.2 nM

Compound: O=C(O)[C@@H]1C[C@H](N2CCCCC2Cc2ccccc2)CN1C(=O)C(c1ccccc1)c1ccccc1 (single isomer, unassigned) [Compound 70-A]
- IC50: 49.1 nM

Compound: O=C(O)[C@@H]1C[C@H](OCCCc2ccc(F)cc2)CN1C(=O)C(c1ccccc1)c1ccccc1 [Compound 104, (2S,4S)-1-(2,2-diphenylacetyl)-4-(3-(4-fluorophenyl)-propoxy)pyrrolidine-2-carboxylic acid]
- IC50: 1320 nM

Compound: O=C(O)[C@@H]1C[C@H](N2CC[C@@H](c3ccccc3)C2)CN1C(=O)C(c1ccccc1)c1ccccc1 [Compound 86]
- IC50: 817 nM

Compound: O=C(O)[C@@H]1C=C(c2sccc2-c2ccccc2)CN1C(=O)C(c1ccccc1)c1ccccc1 [Compound 139, (S)-1-(2,2-diphenylacetyl)-4-(3-phenylthiophen-2-yl)-2,5-dihydro-1H-pyrrole-2-carboxylic acid]
- IC50: 2530 nM

Compound: CN(CCOc1ccc(F)cc1)[C@H]1C[C@@H](C(=O)O)N(C(=O)C(c2ccccc2)c2ccccc2)C1 [Compound 126]
- IC50: 20.5 nM

Reference: patent US9624243B2, “Heterocyclic compounds and methods of their use” (Novartis AG, priority 2012, dated 2017)
